Target: T1, HIV-1 reverse transcriptase (p51/p66 RT), RDDP activity (Human immunodeficiency virus type 1 group M subtype B, UniProt P03366)
T1 construct: 10 ng of p51/p66 heterodimeric RT per assay were used
Experiment: Inhibition of RNA dependent DNA polymerase activity of RT (RT RDDP)
Type: biochemical
Description: BBNH and Fe(III)-BBNH complex at various concentrations were examined for the ability to inhibit RNA dependent and DNA dependent DNA polymerase activities as well as RNAse H activity of HIV-1 reverse transcriptase (RT RDDP, RT DDDP, and RT RNAse H, respectively). To analyze RT RDDP and RT DDDP the following reaction mixture (100 μl total volume) was used: 50 mM Tris-HCl (pH 7.8), 60 mM KCl, 10 mM MgCl2, 10 ng of p51/p66 RT, 0.1-0.5 units of template/primer, and 0.5-25 μM [^3 H]dNTP. Aliquots of the test compounds dissolved in DMSO were added to the reaction mixtures, incubated for 10-20 min. at 37° C. and than quenched with 500 μl of cold 20 mM sodium pyrophosphate in 10% dichloroacetic acid. After 10 min. on ice, the samples were filtered on Whatman 934-AH glass fiber filters and washed with 10% dichloroacetic acid and ethanol, and the radioactivity was determined by liquid scintillation analysis. To analyze RT RNAse H the following reaction mixture (50 μl total volume) was used: 5OmM Tris-HCl (pH 8.0), 60 mM KCl, 8 mM MgCl2, and variable amounts of ([^3 H]rG)-poly(dC). Generally, 10 ng of p51/p66 heterodimeric RT per assay were used. Aliquots of the test compounds dissolved in DMSO were added to the reaction mixtures, incubated for 20 min. at 37° C. and than quenched by placing the tubes on ice followed by the addition of 100 μl of cold 7% perchloric acid. After 10 min. on ice, the samples were centrifuged at 12,000 g for 15 min. 100 μl of the supernatants were carefully removed, and the radioactivity was determined by liquid scintillation analysis.

## CC(C)(C)c1ccc(C(=O)NN=Cc2c(O)ccc3ccccc23)cc1.C[O-].[Cl-].[Cl-].[Fe+3] [Fe(III)-BBNH]
  IC50: 0.4 ± 0.08 µM
  Ratio BBNH/Fe(III)-BBNH (IC50), RT RDDP: 4.8

Reference: patent US6218438A, “Copolymer compositions for treating viral infections” (Supratek Pharma, Inc., priority 1999, dated 2001)
